The values below come from patent US9409884B2 (Rigel Pharmaceuticals, Inc., priority 2012, dated 2016).

One assay has as its target AMPK. Briefly: AMPK activation, enzyme-linked immunosorbent assay. As to conditions: Table 12, compounds of Table 5. The format is biochemical. The procedure, abridged:
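Read-out: ELISA, used to detect compound-driven activation of AMPK.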
As to `COc1ccc(CN2CCC(NC(=O)c3cccc(OC4CCN(Cc5ccc(-c6ccccn6)cc5)CC4)c3)CC2)cc1` [Compound 5-106, N-(1-(4-methoxybenzyl)piperidin-4-yl)-3-(1-(4-(pyridin-2-yl)benzyl)piperidin-4-yloxy)benzamide], the EC50 (commonly the concentration needed to bring the measured effect to its halfway point) was less than 1000 nM.

`COc1ccc(CN2CCC(NC(=O)c3cccc(OC4CCN(Cc5ccc(OC)cc5)CC4)c3)CC2)cc1` [Compound 5-107, N-(1-(4-methoxybenzyl)piperidin-4-yl)-3-(1-(4-methoxybenzyl)piperidin-4-yloxy)benzamide] registered an EC50 of less than 1000 nM.

As to `COc1ccc(CN2CCC(NC(=O)c3cccc(OC4CCN(Cc5ccc(C(F)(F)F)cc5)CC4)c3)CC2)cc1` [Compound 5-108, N-(1-(4-methoxybenzyl)piperidin-4-yl)-3-(1-(4-(trifluoromethyl)benzyl)piperidin-4-yloxy)benzamide], the EC50 was less than 1000 nM.

Regarding `COc1ccc(CN2CCC(NC(=O)c3cccc(OC4CCN(Cc5ccc(N6CCOCC6)cc5)CC4)c3)CC2)cc1` [Compound 5-109, N-(1-(4-methoxybenzyl)piperidin-4-yl)-3-(1-(4-morpholinobenzyl)piperidin-4-yloxy)benzamide], the EC50 is less than 1000 nM.

The compound `COc1ccc(CN2CCC(NC(=O)c3cccc(OC4CCN(CC5CCN(c6ccccc6)CC5)CC4)c3)CC2)cc1` [Compound 5-110, N-(1-(4-methoxybenzyl)piperidin-4-yl)-3-(1-((1-phenylpiperidin-4-yl)methyl)piperidin-4-yloxy)benzamide] displayed an EC50 of less than 1000 nM.

`COc1ccc(CN2CCC(NC(=O)c3cccc(OC4CCN(Cc5cnn(-c6ccc(F)cc6)c5)CC4)c3)CC2)cc1` [Compound 5-111, 3-(1-((1-(4-fluorophenyl)-1H-pyrazol-4-yl)methyl)piperidin-4-yloxy)-N-(1-(4-methoxybenzyl)piperidin-4-yl)benzamide] yielded an EC50 of less than 1000 nM.

The compound `COC(=O)c1ccc(CN2CCC(Oc3cccc(C(=O)NC4CCN(Cc5ccc(OC)cc5)CC4)c3)CC2)cc1` [Compound 5-112, methyl 4-((4-(3-(l-(4-methoxybenzyl)piperidin-4-ylcarbamoyl)phenoxy)piperidin-1-yl)methyl)benzoate] registered a half-maximal effective concentration (EC50) of 1000 to 10000 nM.

Compound `COc1ccc(CN2CCC(NC(=O)c3cccc(OC4CCN(Cc5ccc(Oc6ccc(C#N)cc6)cc5)CC4)c3)CC2)cc1` [Compound 5-113, 3-(1-(4-(4-cyanophenoxy)benzyl)piperidin-4-yloxy)-N-(1-(4-methoxybenzyl)piperidin-4-yl)benzamide] returned a concentration for a half-maximal effect (EC50) of less than 1000 nM.

As to `COc1ccc(CN2CCC(NC(=O)c3cccc(OC4CCN(Cc5cnn(-c6ccccn6)c5)CC4)c3)CC2)cc1` [Compound 5-114, N-(1-(4-methoxybenzyl)piperidin-4-yl)-3-(1-((1-(pyridin-2-yl)-1H-pyrazol-4-yl)methyl)piperidin-4-yloxy)benzamide], the EC50 lay in the range of 1000 to 10000 nM.

`N#Cc1ccc(CN2CCC(NC(=O)c3cccc(OC4CCN(c5ccc(C#N)cc5)CC4)c3)CC2)cc1` [Compound 5-115, N-(1-(4-cyanobenzyl)piperidin-4-yl)-3-(1-(4-cyanophenyl)piperidin-4-yloxy)benzamide] showed an EC50 of less than 1000 nM.

`N#Cc1ccc(CN2CCC(NC(=O)c3cccc(OC4CCN(Cc5ccc(N6CCCC6)cc5)CC4)c3)CC2)cc1` [Compound 5-116, N-(1-(4-cyanobenzyl)piperidin-4-yl)-3-(1-(4-(pyrrolidin-1-yl)benzyl)piperidin-4-yloxy)benzamide] showed an EC50 of less than 1000 nM.

`N#Cc1ccc(CN2CCC(NC(=O)c3cccc(OC4CCN(Cc5ccc(Oc6ccccc6)cc5)CC4)c3)CC2)cc1` [Compound 5-117, N-(1-(4-cyanobenzyl)piperidin-4-yl)-3-(1-(4-phenoxybenzyl)piperidin-4-yloxy)benzamide] had an EC50 of less than 1000 nM.

`N#Cc1ccc(CN2CCC(NC(=O)c3cccc(OC4CCN(Cc5ccc(-c6ccccn6)cc5)CC4)c3)CC2)cc1` [Compound 5-118, N-(1-(4-cyanobenzyl)piperidin-4-yl)-3-(1-(4-(pyridin-2-yl)benzyl)piperidin-4-yloxy)benzamide] gave an EC50 of less than 1000 nM.

In the case of `N#Cc1ccc(CN2CCC(NC(=O)c3cccc(OC4CCN(Cc5ccc(-n6cccn6)cc5)CC4)c3)CC2)cc1` [Compound 5-119, 3-(l-(4-(lH-pyrazol-1-yl)benzyl)piperidin-4-yloxy)-N-(1-(4-cyanobenzyl)piperidin-4-yl)benzamide], the EC50 is less than 1000 nM.

Regarding `N#Cc1ccc(CN2CCC(NC(=O)c3cccc(OC4CCN(Cc5ccc(C#N)c(F)c5)CC4)c3)CC2)cc1` [Compound 5-120, 3-(1-(4-cyano-3-fluorobenzyl)piperidin-4-yloxy)-N-(1-(4-cyanobenzyl)piperidin-4-yl)benzamide], the EC50 was less than 1000 nM.

In the case of `CC(C)Oc1ccc(CN2CCC(Oc3cccc(C(=O)NC4CCN(Cc5ccc(C#N)cc5)CC4)c3)CC2)cc1` [Compound 5-121, N-(1-(4-cyanobenzyl)piperidin-4-yl)-3-(1-(4-isopropoxybenzyl)piperidin-4-yloxy)benzamide], the half-maximal effective concentration (EC50) was less than 1000 nM.

`N#Cc1ccc(CN2CCC(NC(=O)c3cccc(OC4CCN(Cc5cnn(-c6ccc(F)cc6)c5)CC4)c3)CC2)cc1` [Compound 5-122, N-(1-(4-cyanobenzyl)piperidin-4-yl)-3-(1-((1-(4-fluorophenyl)-1H-pyrazol-4-yl)methyl)piperidin-4-yloxy)benzamide]: the EC50 is less than 1000 nM.

With `N#Cc1ccc(CN2CCC(NC(=O)c3cccc(OC4CCN(Cc5ccc(OC(F)(F)F)cc5)CC4)c3)CC2)cc1` [Compound 5-123, N-(1-(4-cyanobenzyl)piperidin-4-yl)-3-(1-(4-(trifluoromethoxy)benzyl)piperidin-4-yloxy)benzamide], the EC50 is greater than 100000 nM.

The compound `N#Cc1ccc(CN2CCC(NC(=O)c3cccc(OC4CCN(Cc5ccc(C#N)cc5)CC4)c3)CC2)cc1` [Compound 5-124, N-(1-(4-cyanobenzyl)piperidin-4-yl)-3-(1-(4-cyanobenzyl)piperidin-4-yloxy)benzamide] displayed an EC50 of less than 1000 nM.

As for `N#Cc1ccc(CN2CCC(NC(=O)c3cccc(OC4CCN(Cc5ccc(C(F)(F)F)cc5)CC4)c3)CC2)cc1` [Compound 5-125, N-(1-(4-cyanobenzyl)piperidin-4-yl)-3-(1-(4-(trifluoromethyl)benzyl)piperidin-4-yloxy)benzamide], the concentration giving a half-maximal response (EC50) is less than 1000 nM.

`N#Cc1ccc(CN2CCC(NC(=O)c3cccc(O[C@@H]4CCN(Cc5ccc(C(F)(F)F)cc5)C[C@H]4F)c3)CC2)cc1` [Compound 5-126, N-(1-(4-cyanobenzyl)piperidin-4-yl)-3-((3,4-trans)-3-fluoro-1-(4-(trifluoromethyl)benzyl)piperidin-4-yloxy)benzamide] displayed an EC50 of less than 1000 nM.

`CC(C)Oc1ccc(CN2CC[C@@H](Oc3cccc(C(=O)NC4CCN(Cc5ccc(C#N)cc5)CC4)c3)[C@H](F)C2)cc1` [Compound 5-127, N-(1-(4-cyanobenzyl)piperidin-4-yl)-3-((3,4-trans)-3-fluoro-1-(4-isopropoxybenzyl)piperidin-4-yloxy)benzamide] showed a 50% effective concentration (EC50) of less than 1000 nM.

In the case of `CS(=O)(=O)c1ccc(CN2CC[C@@H](Oc3cccc(C(=O)NC4CCN(Cc5ccc(C#N)cc5)CC4)c3)[C@H](F)C2)cc1` [Compound 5-128, N-(1-(4-cyanobenzyl)piperidin-4-yl)-3-((3,4-trans)-3-fluoro-1-(4-(methylsulfonyl)benzyl)piperidin-4-yloxy)benzamide], the EC50 was less than 1000 nM.

`N#Cc1ccc(CN2CCC(NC(=O)c3cccc(O[C@@H]4CCN(Cc5ccc(C#N)c(F)c5)C[C@H]4F)c3)CC2)cc1` [Compound 5-129, 3-((3,4-trans)-1-(4-cyano-3-fluorobenzyl)-3-fluoropiperidin-4-yloxy)-N-(1-(4-cyanobenzyl)piperidin-4-yl)benzamide] came in with an EC50 of less than 1000 nM.

Still in this assay, the particulars now being: Table 13, compounds of Table 6.
Compound `CS(=O)(=O)c1ccc(CN2CCN(C(=O)c3ccc4cc(C(=O)NC5CCN(Cc6ccc(C#N)cc6)CC5)oc4c3)CC2)cc1` [Compound 6-2, N-(1-(4-cyanobenzyl)piperidin-4-yl)-6-(4-(4-(methylsulfonyl)benzyl)piperazine-1-carbonyl) benzofuran-2-carboxamide] showed an EC50 of 100 to 1000 nM.

For `COc1ccc(CN2CCC(NC(=O)c3cc4ccc(C(=O)N5CCN(Cc6ccc(S(C)(=O)=O)cc6)CC5)cc4o3)CC2)cc1` [Compound 6-3, N-(1-(4-methoxybenzyl)piperidin-4-yl)-6-(4-(4-(methylsulfonyl)benzyl)piperazine-1-carbonyl) benzofuran-2-carboxamide], the EC50 is less than 100 nM.

`CS(=O)(=O)c1ccc(CN2CCN(C(=O)c3ccc4cc(C(=O)NC5CCN(Cc6ccc(OC(F)(F)F)cc6)CC5)oc4c3)CC2)cc1` [Compound 6-4, 6-(4-(4-(methylsulfonyl)benzyl)piperazine-1-carbonyl)-N-(1-(4-(trifluoromethoxy)benzyl)piperidin-4-yl)benzofuran-2-carboxamide] had an EC50 of 100 to 1000 nM.

`COc1ccc(CN2CCC(NC(=O)c3cc4ccc(C(=O)N5CCN(Cc6ccc(S(C)(=O)=O)cc6)CC5)cc4o3)CC2)cc1F` [Compound 6-5, N-(1-(3-fluoro-4-methoxybenzyl)piperidin-4-yl)-6-(4-(4-(methylsulfonyl)benzyl)piperazine-1-carbonyl) benzofuran-2-carboxamide] displayed an EC50 of less than 100 nM.

The compound `CC(=O)c1ccc(Oc2ccc(NC(=O)c3cc4ccc(C(=O)N5CCN(Cc6ccc(S(C)(=O)=O)cc6)CC5)cc4o3)cn2)cc1` [Compound 6-6, N-(6-(4-acetylphenoxy)pyridin-3-yl)-6-(4-(4-(methylsulfonyl)benzyl)piperazine-1-carbonyl) benzofuran-2-carboxamide] returned an EC50 of less than 100 nM.

As for `CS(=O)(=O)c1ccc(CN2CCN(C(=O)c3ccc4cc(C(=O)NC5CCN(Cc6ccc(OC(F)(F)C(F)F)cc6)CC5)oc4c3)CC2)cc1` [Compound 6-7, 6-(4-(4-(methylsulfonyl)benzyl)piperazine-1-carbonyl)-N-(1-(4-(1,1,2,2-tetrafluoroethoxy)benzyl)piperidin-4-yl)benzofuran-2-carboxamide], the EC50 is less than 100 nM.
